From patent publication US20230227466A1, “SUBSTITUTED THIENOPYRIMIDINES THAT INTERACT WITH THE RAS SUPERFAMILY FOR THE TREATMENT OF CANCERS, INFLAMMATORY DISEASES, RASOPATHIES, AND FIBROTIC DISEASE” (SHY Therapeutics, LLC, priority 2020, published 2023)
pIC50: −log10 of the molar value. Where two headings read alike, the source gives them in different places.

Key:
[1] = test system: MIA-PaCa-2 pancreatic cancer cell line (KRAS G12C); assay: Cell proliferation assay (CellTiter 96 Aqueous One); type: cell-based; details: Homo sapiens; for inhibition at 10 µM: MIA PaCa-2, read-out: % inh cell proliferation (10 μM) in MIA PaCa-2
Method in brief: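 Read-out is MTS-based viability (CellTiter 96 Aqueous One) after 2–4 days of compound exposure at 37 °C in 10% FBS with 0.3% DMSO.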

[2] = test system: Akt phosphorylation in Panc-1 cells; assay: Western AKT cell-based phosphorylation assay; design: species or system human; details: at 10 μM, values in brackets < > are activation %, not inhibition
Method in brief: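 Panc-1 cells starved overnight in 0.5% FBS, exposed to compound at 10 μM (0.3% DMSO) for 6 h at 37° C, then stimulated with 1.5 ng/ml EGF for 15 min. Lysates probed by western blot with anti-phospho-Akt (Ser473), equal protein loading checked by Ponceau S.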

KRas G12C mutant = target: T1, KRas G12C mutant (Homo sapiens, UniProt P01116, G12C); assay: Ras GTP binding domain inhibition assay (labeled-GTP competition, cell-free)
T1 construct: made in house
Method in brief: (§1)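 First, the His-tagged protein was captured overnight at 4° C on nickel wells. Second, compound was applied at 20 μM or as a dilution series for IC50 over 3 h. Third, 100 nM Cy3- or Cy5-GTP was added for 45 min. Finally, wells were washed and bound label quantified.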

KRas Q61H mutant = target: T2, KRas Q61H mutant (Homo sapiens, UniProt P01116, Q61H); assay: as above
T2 construct: made in house
Method in brief: as §1

KRas G12D mutant = target: T3, KRas G12D mutant (Homo sapiens, UniProt P01116, G12D); assay: as above
T3 construct: made in house
Method in brief: as §1

KRas wild type = KRas wild type (Homo sapiens, UniProt P01116); assay: as above; design: made in house
Method in brief: as §1

Rho-A = Rho-A (Homo sapiens, UniProt P61586); assay: as above; design: made in house
Method in brief: as §1

Rac-1 = Rac-1 (Homo sapiens, UniProt P63000); assay: as above; design: made in house
Method in brief: as §1

[3] = with SOS, read-out: KRas G12C mutant + SOS: % inh.
[4] = without SOS, read-out: KRas G12C mutant: % inh.
[5] = with SOS, read-out: KRas Q61H mutant + SOS: % inh.
[6] = without SOS, read-out: KRas Q61H mutant: % inh.
[7] = with SOS, read-out: KRas G12D mutant + SOS: % inh.
[8] = without SOS, read-out: KRas G12D mutant: % inh.
[9] = with SOS, read-out: KRas wild type + SOS: % inh.
[10] = without SOS, read-out: KRas wild type: % inh.
[11] = with SOS, read-out: Rho-A + SOS: % inh.
[12] = without SOS, read-out: Rho-A: % inh.
[13] = with SOS, read-out: Rac-1 + SOS: % inh.
[14] = without SOS, read-out: Rac-1: % inh.

Structure (SMILES) | IC50 ([1]; MIA PaCa-2, MIA PaCa-2) [µM] | inhibition at 10 µM [1] [%] | % inh of AKT phosphorylation in PANC-1 [2] | inhibition at 20 µM (KRas G12C mutant; [3]) [%] | inhibition at 20 µM (KRas G12C mutant; [4]) [%] | inhibition at 20 µM (KRas Q61H mutant; [5]) [%] | inhibition at 20 µM (KRas Q61H mutant; [6]) [%] | pIC50 (KRas Q61H mutant; with SOS) | inhibition at 20 µM (KRas G12D mutant; [7]) [%] | inhibition at 20 µM (KRas G12D mutant; [8]) [%] | inhibition at 20 µM (KRas wild type; [9]) [%] | inhibition at 20 µM (KRas wild type; [10]) [%] | inhibition at 20 µM (Rho-A; [11]) [%] | inhibition at 20 µM (Rho-A; [12]) [%] | inhibition at 20 µM (Rac-1; [13]) [%] | inhibition at 20 µM (Rac-1; [14]) [%] | IC50 ([1]; MIA PaCa-2, MIA-PaCa-2, 2-4 days, 10% FBS) [µM]
CO[C@H]1CC[C@@H](Nc2nc(-c3nccn3C)nc3sc(-c4cn(C)cn4)c(-c4ccccc4)c23)C1 (racemic) [Example 3, Rac-N-((1R,3S)-3-methoxycyclopentyl)-2-(1-methyl-1H-imidazol-2-yl)-6-(1-methyl-1H-imidazol-4-yl)-5-phenylthieno[2,3-d]pyrimidin-4-amine] | 1 to 4.99 | 76 to 100 | 0 (0% inhibition) | 76 to 100 | 76 to 100 | 76 to 100 | 76 to 100 | 5.00 to 5.30 | 76 to 100 | 76 to 100 | 76 to 100 | 51 to 75 | 76 to 100 | 51 to 75 | 76 to 100 | 76 to 100 | –
COc1ccn2c(-c3nc(O)c4scc(-c5ccccn5)c4n3)ncc2c1 [Compound 85, 2-(7-Methoxyimidazo[1,5-a]pyridin-3-yl)-7-(pyridin-2-yl)thieno[3,2-d]pyrimidin-4-ol] | 5 to 10 | 51 to 75 | 0 (0% inhibition) | 1 to 25 | 26 to 50 | 26 to 50 | 51 to 75 | – | 26 to 50 | 51 to 75 | 1 to 25 | 51 to 75 | – | 51 to 75 | – | 51 to 75 | –
COc1ccc2cnc(-c3nc(O)c4scc(-c5ccccn5)c4n3)n2c1 [Compound 86, 2-(6-Methoxyimidazo[1,5-a]pyridin-3-yl)-7-(pyridin-2-yl)thieno[3,2-d]pyrimidin-4-ol] | 5 to 10 | 51 to 75 | B (26-50% inhibition) | 26 to 50 | 26 to 50 | 51 to 75 | 26 to 50 | – | 51 to 75 | 51 to 75 | 26 to 50 | 51 to 75 | – | 51 to 75 | – | 51 to 75 | –
COCCn1c(-c2nc(O)c3scc(-c4ccccn4)c3n2)nc2ccccc21 [Compound 87, 2-(1-(2-Methoxyethyl)-1H-benzo[d]imidazol-2-yl)-7-(pyridin-2-yl)thieno[3,2-d]pyrimidin-4-ol] | 5 to 10 | 76 to 100 | <A> | 1 to 25 | 1 to 25 | 26 to 50 | 1 to 25 | – | 26 to 50 | 51 to 75 | 1 to 25 | 26 to 50 | – | 51 to 75 | – | 51 to 75 | > 3
Oc1nc(-c2ccncn2)nc2c(-c3ccccn3)csc12 [Compound 88, 7-(Pyridin-2-yl)-2-(pyrimidin-4-yl)thieno[3,2-d]pyrimidin-4-ol] | > 10 | 26 to 50 | <B> | 26 to 50 | 1 to 25 | 26 to 50 | 26 to 50 | – | 26 to 50 | 51 to 75 | 1 to 25 | 26 to 50 | – | 51 to 75 | – | 51 to 75 | –
Oc1nc(-c2cccnc2)nc2c(-c3ccccn3)csc12 [Compound 89, 7-(Pyridin-2-yl)-2-(pyridin-3-yl)thieno[3,2-d]pyrimidin-4-ol] | > 10 | 26 to 50 | 0 (0% inhibition) | 0 | 0 | 1 to 25 | 1 to 25 | – | 0 | 0 | 0 | 0 | – | 1 to 25 | – | 0 | –
Cn1ccc(-c2nc(O)c3scc(-c4ccccn4)c3n2)n1 [Compound 90, 2-(1-Methyl-1H-pyrazol-3-yl)-7-(pyridin-2-yl)thieno[3,2-d]pyrimidin-4-ol] | > 10 | 1 to 25 | 0 (0% inhibition) | 1 to 25 | 1 to 25 | 26 to 50 | 1 to 25 | – | 1 to 25 | 26 to 50 | 0 | 0 | – | 51 to 75 | – | 26 to 50 | –
Cn1nccc1-c1nc(O)c2scc(-c3ccccn3)c2n1 [Compound 91, 2-(1-Methyl-1H-pyrazol-5-yl)-7-(pyridin-2-yl)thieno[3,2-d]pyrimidin-4-ol] | > 10 | 0 | 0 (0% inhibition) | 1 to 25 | 0 | 26 to 50 | 1 to 25 | – | 1 to 25 | 1 to 25 | 0 | 0 | – | 0 | – | 0 | –
Cc1cnc(-c2nc(O)c3scc(-c4ccccn4)c3n2)s1 [Compound 92, 2-(5-Methylthiazol-2-yl)-7-(pyridin-2-yl)thieno[3,2-d]pyrimidin-4-ol] | > 10 | 0 | 0 (0% inhibition) | 51 to 75 | 51 to 75 | 51 to 75 | 76 to 100 | – | 51 to 75 | 76 to 100 | 51 to 75 | 51 to 75 | – | 76 to 100 | – | 76 to 100 | –
COCCn1ccnc1-c1nc(O)c2scc(-c3ccncc3)c2n1 [Compound 94, 2-(1-(2-Methoxyethyl)-1H-imidazol-2-yl)-7-(pyridin-4-yl)thieno[3,2-d]pyrimidin-4-ol] | 5 to 10 | 51 to 75 | 0 (0% inhibition) | 51 to 75 | 51 to 75 | 51 to 75 | 51 to 75 | – | 76 to 100 | 76 to 100 | 51 to 75 | 51 to 75 | – | 76 to 100 | – | 76 to 100 | –
COc1nc(-c2nccn2C)nc2c(-c3ncccc3F)csc12 [Compound 95, 7-(3-Fluoropyridin-2-yl)-4-methoxy-2-(1-methyl-1H-imidazol-2-yl)thieno[3,2-d]pyrimidine] | > 10 | 0 | 0 (0% inhibition) | 76 to 100 | 76 to 100 | 76 to 100 | 76 to 100 | – | 76 to 100 | 76 to 100 | 76 to 100 | 76 to 100 | 76 to 100 | 76 to 100 | 76 to 100 | 76 to 100 | –
CO[C@H]1C[C@@H](Nc2nc(-c3nccn3C)nc3sc(-c4cn(C)cn4)c(-c4ccccc4)c23)C1 [Example 2, N-((1s,3s)-3-methoxycyclobutyl)-2-(1-methyl-1H-imidazol-2-yl)-6-(1-methyl-1H-imidazol-4-yl)-5-phenylthieno[2,3-d]pyrimidin-4-amine] | 1 to 4.99 | 51 to 75 | 0 (0% inhibition) | 76 to 100 | 76 to 100 | 76 to 100 | 51 to 75 | 5.30 to 6.00 | 51 to 75 | 51 to 75 | 76 to 100 | 76 to 100 | 76 to 100 | 76 to 100 | 51 to 75 | 51 to 75 | –
